ChEMBL document CHEMBL4823244, “Synthesis of norisoboldine derivatives and bioactivity assay for inducing the generation of regulatory T cells” (Bioorg Med Chem Lett, 2021)
Active and inactive are the calls of the source. No cut-off for these calls is given here.

Tests used:
Mus musculus [1] = assay: Antiinflammatory activity in DSS-induced ulcerative colitis mouse model assessed as protection against colon destruction at 200 mg/kg, po administered for 10 consecutive days by HE staining based histopathological analysis; assay type: functional, organism-based; conditions: time 10.0 day
Mus musculus [2] = assay: Induction of Treg cell differentiation in DSS- induced ulcerative colitis mouse model assessed as number of Treg cells in colonic lamina proprias at 200 mg/kg, po administered for 10 consecutive days by flow cytometry analysis (Rvb= 7.97%); assay type: functional; conditions: time 10 day
Mus musculus [3] = assay: Induction of Treg cell differentiation in DSS- induced ulcerative colitis mouse model assessed as number of Treg cells in mesenteric lymph nodes at 200 mg/kg, po administered for 10 consecutive days by flow cytometry analysis (Rvb= 7.52%); assay type: functional; conditions: time 10 day
Mus musculus [4] = assay: Induction of Treg cell differentiation in DSS- induced ulcerative colitis mouse model assessed as number of Treg cells in spleens at 200 mg/kg, po administered for 10 consecutive days by flow cytometry analysis (Rvb= 6.49%); assay type: functional; conditions: time 10 day
Mus musculus [5] = assay: Antiinflammatory activity in DSS-induced ulcerative colitis mouse model assessed as rescue of colon length shortening at 200 mg/kg, po administered for 10 consecutive days; assay type: functional, organism-based; conditions: time 10.0 day
Mus musculus [6] = assay: Antiinflammatory activity in DSS-induced ulcerative colitis mouse model assessed as reduction in DAI score at 200 mg/kg, po administered for 10 consecutive days; assay type: functional, organism-based; conditions: time 10.0 day
Mus musculus [7] = assay: Antiinflammatory activity in DSS-induced ulcerative colitis mouse model assessed as reduction in MPO activity at 200 mg/kg, po administered for 10 consecutive days; assay type: functional, organism-based; conditions: time 10.0 day
Mus musculus [8] = assay: Antiinflammatory activity in DSS-induced ulcerative colitis mouse model assessed as protection against inflammation of colons at 200 mg/kg, po administered for 10 consecutive days by HE staining based histopathological analysis; assay type: functional, organism-based; conditions: time 10.0 day

For `Nc1ccc(O)c(C(=O)O)c1` [MESALAMINE], the Activity (Mus musculus [1]) was “Active”, the Activity (Mus musculus [2]) was 9.59% and the Activity (Mus musculus [3]) was 7.7%. For the same compound, the Activity (Mus musculus [4]) was 5.9%, the Activity (Mus musculus [5]) was “Active” and the Activity (Mus musculus [6]) was “Active”. For the same compound, the Activity (Mus musculus [7]) was “Active” and the Activity (Mus musculus [8]) was “Active”.
